This is an account of results in patent US11401271B2, “Fused heterocyclic compound, pyrazole-ring-containing fused heterocyclic compound, agricultural composition containing thereof, and method of using the composition” (SOUTH CHINA AGRICULTURAL UNIVERSITY, priority 2017, dated 2022).

Molecules are shown by their SMILES.

The first series concerns Spodoptera exigua. Description: whole plant or invertebrate. The series is classed as in vivo. The note with it: Spodoptera exigua, 24 h, read-out: Spodoptera exigua Mortality (%) 500 ppm. As for the experimental part:
(2) Insecticidal Activity on 2nd-Instar Larvae of Spodoptera exigua.
Spodoptera exigua is a lepidoptera pest with a chewing mouthpart and is a common vegetable pest. The 2nd-instar larvae of Spodoptera exigua were used as test objects and tested by using a leaf immersion feeding method.
(§1) Operation process: Samples were weighed accurately, and respectively added with 200 μL, of dimethyl sulfoxide to prepare 10 g/L mother liquor which was diluted into a concentration of 500 ppm with an aqueous solution containing 0.05% of Tween-80 during the test. A hole puncher with a diameter of 1.0 cm was used to make cleaned cabbage leaves into leaf discs. The leaf discs were immersed in a liquid medicine, taken out after 5 seconds, air-dried naturally, and transferred into a clean vessel. About 35 2nd -instar larvae of Spodoptera exigua were put into the vessel and fed at a constant temperature of 28° C. Each concentration was repeated 3 times, and an aqueous solution containing 0.05% of Tween-80 was used as a control group. After being treated for 24 hours, a number of dead Spodoptera exigua was counted, and a mortality (%) was calculated according to a formula that mortality (%)=(number of live larvae in the control group −number of treated live larvae)/number of live larvae in the control group * 100%.
What is called mortality is the percentage killed. Turning to `CC(=O)Nc1c(C#N)nn2c1NC(C)(C)c1ccccc1-2` [Compound A17], the mortality at 500 ppm was 100%.

As to `Cc1ccc(S(=O)(=O)Nc2c(C#N)nn3c2NC(C)(C)c2ccccc2-3)cc1` [Compound A20], the mortality at 500 ppm was determined as 90%.

In the case of `CSc1nn2c(c1C#N)NC(F)(C(F)(F)F)c1ccccc1-2` (centres unmarked) [Compound A25], the mortality at 500 ppm is 100%.

With `CSc1nn2c(c1C(N)=O)NC(F)(C(F)(F)F)c1ccccc1-2` (centres unmarked) [Compound A28], the mortality at 500 ppm came to 90%.

For `CSc1nn2c(c1C(=O)N(C)C)NC(F)(C(F)(F)F)c1ccccc1-2` (centres unmarked) [Compound A29], the mortality at 500 ppm was determined as 100%.

On to `CSc1nn2c(c1C#N)N(S(C)(=O)=O)C(F)(C(F)(F)F)c1ccccc1-2` (centres unmarked) [Compound A33], for which the mortality at 500 ppm turned out to be 100%.

For the compound `C=CCN1c2c(C#N)c(SC)nn2-c2ccccc2C1(F)C(F)(F)F` (centres unmarked) [Compound A34], the mortality at 500 ppm was determined as 100%.

Staying with this series, now noted: Spodoptera exigua; 500 ppm; 2nd-instar larvae; leaf immersion feeding; 24 hours; read-out: Spodoptera exigua Mortality (%) 500 ppm.
Turning to `CC1(C)Nc2c(NC(=O)Oc3ccccc3)c(C#N)nn2-c2ccccc21` [Compound A18], the mortality at 500 ppm was determined as 100%.

In the case of `CSc1nn2c(c1C#N)N(C(=O)Oc1ccccc1)C(F)(C(F)(F)F)c1ccccc1-2` (centres unmarked) [Compound A31], the mortality at 500 ppm turned out to be 100%.

Staying with this series, now noted: in vivo.
On to `N#Cc1cnn2c1NC(N)(CN)c1ccc(Cl)cc1-2` (centres unmarked) [Compound A24], for which the “Spodoptera exigua Mortality (%) 500 ppm” value is recorded as 100%.

For a further series, the system named is Plutella xylostella. Description: whole plant or invertebrate. The series is classed as in vivo. Particulars: Plutella xylostella, read-out: Plutella xylostella Mortality (%) 500 ppm. How it is done: (1) Insecticidal Activity on 2nd-Instar Larvae of Plutella xylostella.
Plutella xylostella (L.) is a lepidoptera pest with a chewing mouthpart and is a common vegetable pest. The 2nd-instar larvae of Plutella xylostella were used as test objects and tested by using a leaf immersion feeding method.
as §1, with “μL” for “μL,”, “2nd-instar” for “2nd -instar”, “Plutella xylostella” for “Spodoptera exigua”, “group−number” for “group −number”, “group*100%.” for “group * 100%.”
As to `CC(=O)Nc1c(C#N)nn2c1NC(C)(C)c1ccccc1-2` [Compound A17], the mortality at 500 ppm is 100%.

In the case of `Cc1ccc(S(=O)(=O)Nc2c(C#N)nn3c2NC(C)(C)c2ccccc2-3)cc1` [Compound A20], the mortality at 500 ppm turned out to be 100%.

Turning to `CSc1nn2c(c1C#N)NC(F)(C(F)(F)F)c1ccccc1-2` (centres unmarked) [Compound A25], the mortality at 500 ppm worked out at 100%.

In the case of `CSc1nn2c(c1C(N)=O)NC(F)(C(F)(F)F)c1ccccc1-2` (centres unmarked) [Compound A28], the mortality at 500 ppm worked out at 100%.

Turning to `CSc1nn2c(c1C(=O)N(C)C)NC(F)(C(F)(F)F)c1ccccc1-2` (centres unmarked) [Compound A29], the mortality at 500 ppm amounted to 100%.

Take `CSc1nn2c(c1C#N)N(S(C)(=O)=O)C(F)(C(F)(F)F)c1ccccc1-2` (centres unmarked) [Compound A33]: the mortality at 500 ppm was determined as 100%.

`C=CCN1c2c(C#N)c(SC)nn2-c2ccccc2C1(F)C(F)(F)F` (centres unmarked) [Compound A34]: the mortality at 500 ppm amounted to 96%.

The same series, now with this note: Plutella xylostella; 500 ppm; 2nd-instar larvae; leaf immersion feeding; read-out: Plutella xylostella Mortality (%) 500 ppm.
On to `CC1(C)Nc2c(NC(=O)Oc3ccccc3)c(C#N)nn2-c2ccccc21` [Compound A18], for which the mortality at 500 ppm amounted to 100%.

Consider `CSc1nn2c(c1C#N)N(C(=O)Oc1ccccc1)C(F)(C(F)(F)F)c1ccccc1-2` (centres unmarked) [Compound A31], for which the mortality at 500 ppm was determined as 100%.

The series is the same for the next values; noted with them: in vivo.
For `N#Cc1cnn2c1NC(N)(CN)c1ccc(Cl)cc1-2` (centres unmarked) [Compound A24], the “Plutella xylostella Mortality (%) 500 ppm” value is on record as 100%.

The test system of a further series is Solenopsis invicta. Nature of the series: whole plant or invertebrate. The series is classed as in vivo. The note with it: Solenopsis invicta, 24 h, read-out: Solenopsis invicta Mortality (%) 100 ppm 24 h, 100 ppm; 24 h; water test tube poison-feeding. How it is done:
(4) Insecticidal Activity on Solenopsis invicta.
As a hymenoptera pests and a social insect, Solenopsis invicta is one of the most destructive invasive organisms. Solenopsis invicta were used as test objects and tested by using a water test tube poison-feeding method.
Operation process: Samples were weighed accurately, and respectively added with 200 μL of dimethyl sulfoxide to prepare 10 g/L mother liquor which was diluted into a concentration of 100 ppm with a mixed aqueous solution containing 0.05% of Tween-80 and 5% of honey during the test. […] The raising test tube was placed in a raising box horizontally, and a small amount of ham sausages were added to the raising test tube as food to raise the Solenopsis invicta at a constant temperature of 25° C. After being treated for 24 hours and 72 hours, a number of live Solenopsis invicta and a number of dead Solenopsis invicta were counted, and a mortality (%) was calculated according to a formula that mortality (%)=(number of live Solenopsis invicta in the control group−number of treated live Solenopsis invicta)/number of live Solenopsis invicta in the control group*100%.
As for `CC(=O)Nc1c(C#N)nn2c1NC(C)(C)c1ccccc1-2` [Compound A17], the mortality at 100 ppm is 34%.

`Cc1ccc(S(=O)(=O)Nc2c(C#N)nn3c2NC(C)(C)c2ccccc2-3)cc1` [Compound A20]: the mortality at 100 ppm was 26%.

`CSc1nn2c(c1C#N)NC(F)(C(F)(F)F)c1ccccc1-2` (centres unmarked) [Compound A25]: the mortality at 100 ppm came out at 38%.

Regarding `CSc1nn2c(c1C(N)=O)NC(F)(C(F)(F)F)c1ccccc1-2` (centres unmarked) [Compound A28], the mortality at 100 ppm worked out at 29%.

Take `CSc1nn2c(c1C(=O)N(C)C)NC(F)(C(F)(F)F)c1ccccc1-2` (centres unmarked) [Compound A29]: the mortality at 100 ppm stood at 26%.

Regarding `CSc1nn2c(c1C#N)N(S(C)(=O)=O)C(F)(C(F)(F)F)c1ccccc1-2` (centres unmarked) [Compound A33], the mortality at 100 ppm amounted to 24%.

With `C=CCN1c2c(C#N)c(SC)nn2-c2ccccc2C1(F)C(F)(F)F` (centres unmarked) [Compound A34], the mortality at 100 ppm came to 28%.

Still in this series, the particulars now being: Solenopsis invicta, 72 h, read-out: Solenopsis invicta Mortality (%) 100 ppm 72 h, 100 ppm; 72 h; water test tube poison-feeding.
For the compound `CC(=O)Nc1c(C#N)nn2c1NC(C)(C)c1ccccc1-2` [Compound A17], the mortality at 100 ppm was 100%.

Consider `Cc1ccc(S(=O)(=O)Nc2c(C#N)nn3c2NC(C)(C)c2ccccc2-3)cc1` [Compound A20], for which the mortality at 100 ppm came out at 93%.

With `CSc1nn2c(c1C#N)NC(F)(C(F)(F)F)c1ccccc1-2` (centres unmarked) [Compound A25], the mortality at 100 ppm stood at 100%.

Regarding `CSc1nn2c(c1C(N)=O)NC(F)(C(F)(F)F)c1ccccc1-2` (centres unmarked) [Compound A28], the mortality at 100 ppm came out at 97%.

For the compound `CSc1nn2c(c1C(=O)N(C)C)NC(F)(C(F)(F)F)c1ccccc1-2` (centres unmarked) [Compound A29], the mortality at 100 ppm came to 95%.

Regarding `CSc1nn2c(c1C#N)N(S(C)(=O)=O)C(F)(C(F)(F)F)c1ccccc1-2` (centres unmarked) [Compound A33], the mortality at 100 ppm was found to be 100%.

Consider `C=CCN1c2c(C#N)c(SC)nn2-c2ccccc2C1(F)C(F)(F)F` (centres unmarked) [Compound A34], for which the mortality at 100 ppm is 97%.

Still in this series, the particulars now being: Solenopsis invicta; 100 ppm; 24 h; water test tube poison-feeding; read-out: Solenopsis invicta Mortality (%) 100 ppm 24 h.
With `CC1(C)Nc2c(NC(=O)Oc3ccccc3)c(C#N)nn2-c2ccccc21` [Compound A18], the mortality at 100 ppm was determined as 44%.

`CSc1nn2c(c1C#N)N(C(=O)Oc1ccccc1)C(F)(C(F)(F)F)c1ccccc1-2` (centres unmarked) [Compound A31]: the mortality at 100 ppm came out at 20%.

The same series, now with this note: Solenopsis invicta; 100 ppm; 72 h; water test tube poison-feeding; read-out: Solenopsis invicta Mortality (%) 100 ppm 72 h.
With `CC1(C)Nc2c(NC(=O)Oc3ccccc3)c(C#N)nn2-c2ccccc21` [Compound A18], the mortality at 100 ppm came to 100%.

On to `CSc1nn2c(c1C#N)N(C(=O)Oc1ccccc1)C(F)(C(F)(F)F)c1ccccc1-2` (centres unmarked) [Compound A31], for which the mortality at 100 ppm turned out to be 100%.

Still in this series, the particulars now being: in vivo.
With `N#Cc1cnn2c1NC(N)(CN)c1ccc(Cl)cc1-2` (centres unmarked) [Compound A24], the “Solenopsis invicta Mortality (%) 100 ppm 24 h” value was 44% and the “Solenopsis invicta Mortality (%) 100 ppm 72 h” value amounted to 100%.

The next series relates to Aphis craccivora. Description: whole plant or invertebrate. Particulars: Aphis craccivora, 24 h, read-out: Aphis craccivora Mortality (%) 500 ppm. It counts as in vivo. How it is done: (3) Insecticidal Activity on Aphid Adults.
Aphid is a homoptera pest with a piercing-sucking mouthpart and is a common vegetable pest. Aphis craccivora were taken as test objects and tested by using an impregnation method.
Operation process: Samples were weighed accurately, and respectively added with 200 μL of dimethyl sulfoxide to prepare 10 g/L mother liquor which was diluted into a concentration of 500 ppm with an aqueous solution containing 0.05% of Tween-80 during the test. After the wingless Aphis craccivora adults stably sucked on bean sprouts, the wingless Aphis craccivora adults together with the bean sprouts were immersed into a liquid medicine with a concentration of 500 ppm, taken out after 5 seconds, air-dried naturally, transferred into a clean vessel, and fed at a constant temperature of 23° C. Each concentration was repeated 3 times, and an aqueous solution containing 0.05% of Tween-80 was used as a control group. After being treated for 24 hours, a number of dead Aphis craccivora was counted, and a mortality (%) was calculated according to a formula that mortality (%)=(number of live Aphis craccivora in the control group−number of treated live Aphis craccivora)/number of live Aphis craccivora in the control group*100%.
`CC(=O)Nc1c(C#N)nn2c1NC(C)(C)c1ccccc1-2` [Compound A17]: the mortality at 500 ppm stood at 100%.

As to `Cc1ccc(S(=O)(=O)Nc2c(C#N)nn3c2NC(C)(C)c2ccccc2-3)cc1` [Compound A20], the mortality at 500 ppm turned out to be 100%.

In the case of `CSc1nn2c(c1C#N)NC(F)(C(F)(F)F)c1ccccc1-2` (centres unmarked) [Compound A25], the mortality at 500 ppm was 100%.

In the case of `CSc1nn2c(c1C(N)=O)NC(F)(C(F)(F)F)c1ccccc1-2` (centres unmarked) [Compound A28], the mortality at 500 ppm is 100%.

In the case of `CSc1nn2c(c1C(=O)N(C)C)NC(F)(C(F)(F)F)c1ccccc1-2` (centres unmarked) [Compound A29], the mortality at 500 ppm came out at 100%.

Consider `CSc1nn2c(c1C#N)N(S(C)(=O)=O)C(F)(C(F)(F)F)c1ccccc1-2` (centres unmarked) [Compound A33], for which the mortality at 500 ppm came out at 100%.

As for `C=CCN1c2c(C#N)c(SC)nn2-c2ccccc2C1(F)C(F)(F)F` (centres unmarked) [Compound A34], the mortality at 500 ppm worked out at 100%.

The series is the same for the next values; noted with them: Aphis craccivora; 500 ppm; wingless adults; impregnation method; 24 hours; read-out: Aphis craccivora Mortality (%) 500 ppm.
Regarding `CC1(C)Nc2c(NC(=O)Oc3ccccc3)c(C#N)nn2-c2ccccc21` [Compound A18], the mortality at 500 ppm is 100%.

`CSc1nn2c(c1C#N)N(C(=O)Oc1ccccc1)C(F)(C(F)(F)F)c1ccccc1-2` (centres unmarked) [Compound A31]: the mortality at 500 ppm is 100%.

Staying with this series, now noted: in vivo.
For `N#Cc1cnn2c1NC(N)(CN)c1ccc(Cl)cc1-2` (centres unmarked) [Compound A24], the “Aphis craccivora Mortality (%) 500 ppm” value stood at 100%.
